Test results taken from patent publication US20100203104A1, “DELIVERY SYSTEM FOR RISPERIDONE” (N.V. Organon, priority 2006, published 2010).

Test: Solubility of risperidone in ethylene vinyl acetate copolymer
Assay type: physicochemical
Settings: ethylene vinyl acetate copolymer having a vinyl acetate content of 28%
Experimental: With risperidone is meant 3-[2-[4-(6-fluoro-1,2-benzisoxazol-3-yl)-1-piperidinyl]ethyl]-6,7,8,9-tetrahydro-2-methyl-4H-pyrido[1,2-a]pyrimidin-4-one. […] Solubility is measured as described in Laarhoven, J. A. H., et al. (2002), International Journal of Pharmaceutics 232, page 165.

With `Cc1nc2n(c(=O)c1CCN1CCC(c3noc4cc(F)ccc34)CC1)CCCC2` [Risperidone, 3-[2-[4-(6-fluoro-1,2-benzisoxazol-3-yl)-1-piperidinyl]ethyl]-6,7,8,9-tetrahydro-2-methyl-4H-pyrido[1,2-a]pyrimidin-4-one] the “solubility in ethylene vinyl acetate copolymer” value was 0.1 wt %.
